The values that follow are results of earlier work, collected in patent publication US10478388B2, “Skin engaging shaving aid member comprising at least one thermally resilient sensate” (The Gillette Company, priority 2012, dated 2019).

The conditions of series [1]: concentration where the cooling effect could be clearly recognized.
For series [2] the following is noted: compared to menthol at 2 ppm.

As for `CC(C)[C@@H]1CC[C@@H](C)C[C@@H]1O` [Example 1-neomenthol, 1-neomenthol], the Cooling threshold entry in series [1] was “about 3,000 ppb”. On to `CC(C)[C@@H]1CC[C@@H](C)C[C@H]1O` [L-menthol], for which, in series [1], the Cooling threshold entry is reported as “about 800 ppb”. As for `CC(C)[C@@H]1CC[C@@H](C)C[C@H]1C(=O)Nc1ccc(CC#N)cc1` [N-[4-(cyanomethyl)phenyl]-(1R,2S,5R)-2-isopropyl-5-methylcyclohexanecarboxamide], the “Cooling as compared to menthol” value in series [2] is given as “about 10 ×”. Consider `CC(C)[C@@H]1CC[C@@H](C)C[C@@H]1O` [d-neomenthol], for which the Cooling threshold entry in series [1] is given as “about 25,000 ppb”.
